Assay results from a melting point compilation (Tetko et al.; mined from patent text by program, amines drawn as free bases though some values may be those of a salt).

Row | Compound | melting point
1 | Nc1nc2c(Oc3cc(-c4ccc(C(F)(F)F)cc4)ncn3)cccc2s1 | 232 to 234 °C
2 | COCCOC(=O)C1=C(C)Nc2nc(N3CCOCC3)nc(N3CCOCC3)c2C1c1cccc([N+](=O)[O-])c1 (stereo not drawn) | 172 °C
3 | O=c1c(CCCCc2ccccn2)cc2cccnc2n1-c1cccc([N+](=O)[O-])c1 | 163 to 165 °C
4 | c1ccc(-c2ccc3cc(COc4ccc(CCCn5ccnc5)cc4)cnc3c2)cc1 | 135 to 136 °C
5 | Cc1ccc(Cc2cc3c(cc2/C=C/c2ccc(C(=O)O)cc2)C(C)(C)CCC3(C)C)cc1 | 216 to 217 °C
6 | COc1cc(N(C)C)ccc1-c1nc2c(N[C@H]3[C@@H](C(N)=O)[C@@H]4C=C[C@H]3C4)c(Br)cnc2[nH]1 | 218 to 220 °C
7 | CC(=O)c1ccc2c(c1)C(C)(C)CC(=O)N2C | 75 to 77 °C
8 | CC(C)(C)c1cc2c(c(C(C)(C)C)c1)OC(=O)C2c1ccc(OCCO)cc1 (stereo not drawn) | 132 to 135 °C
9 | CC(=O)OC1CC2=CC(=O)C3C4CCCC4(C)CCC3C2(C)C(OC(C)=O)C1 (stereo not drawn) | 220 to 221 °C
10 | O=C(Oc1cccc(OC(=O)c2cc(O)c(O)c(O)c2)c1)c1cc(O)c(O)c(O)c1 | 194 to 195 °C
11 | O=C(O)c1ccc(Cl)nc1C(F)(F)F | 154 to 156 °C
12 | CCN1N=C(c2ccc3c(c2)CCC(=O)N3C)C(C)CC1=O (stereo not drawn) | 170 to 172 °C
13 | OCc1nccc(N2CCOCC2)c1Cl | 80 to 82 °C
14 | COC(=O)C1=C(C)NC(C)=C(C(=O)OCC2CCCO2)C1c1cccc(C#N)c1 (stereo not drawn) | 127 to 129 °C
15 | COc1ccc(N2CC(=O)N(CCN)C2=O)cc1OC | 162 to 164 °C
16 | COC(=O)N(C)C(=O)N(SC(Cl)Cl)c1ccccc1 | 77 to 78 °C
17 | COc1cn(-c2ccc(C3CCOCC3)cc2F)nc(-c2ccnn2-c2ccccc2)c1=O | 187 to 189 °C
18 | CCCCOc1ccc(S(=O)(=O)C2(C(=O)OCC)CCN(Cc3ccc(Cl)c(Cl)c3)CC2)cc1 | 86 °C
19 | Clc1ccc(-c2cc(C3CCN(Cc4cccc(Cl)c4)CC3)n[nH]2)cc1 | 134 to 136 °C
20 | CCOC(=O)CC(C#N)(CC(=O)OCC)c1ccc(F)cc1 | 68 to 70 °C
21 | Cc1c(-n2c(C)ccc2C)cc(CC(C#N)=CNc2ccccc2)cc1-n1c(C)ccc1C | 252 °C
22 | O=Cc1coc2ccc(Br)cc2c1=O | 186 to 188 °C
23 | Cc1ncc(C#N)c(Nc2ccc3[nH]ccc3c2C)c1-c1ccc(OCCN2CCN(C)CC2)cc1 | 183 to 184 °C
24 | CS(=O)(=O)Cc1c(C(=O)c2cnoc2C2CC2)ccc(S(C)(=O)=O)c1Cl | 110 °C
25 | O=C(O)C1=Cc2ccc3ccccc3c2OC1C(F)(F)F (stereo not drawn) | 246 to 249 °C

Row | Compound | melting point
26 | CC(C)C(=O)NC1CCc2c(c3cc(-c4nnc(N)s4)ccc3n2Cc2cccc(F)c2)C1 (stereo not drawn) | 251 to 254 °C
27 | CC1CC(c2ccc(CCCCN)cc2)=NNC1=O (stereo not drawn) | 118 to 120 °C
28 | CNc1cc(-c2ccc(Cl)cc2)nc2nn(C)cc12 | 182 to 184 °C
29 | CC(=O)N(C)c1c(C(=O)c2cccc(C)c2)[nH]c2cc(Cl)ccc12 | 166 to 171 °C
30 | O=C(O)C1CCc2ccc3[nH]ccc3c21 (stereo not drawn) | 166 to 167 °C
31 | Cc1oc(-c2ccccc2)nc1CCOc1ccc(C(=O)O)c(O)c1 | 192 to 194 °C
32 | C[C@H](CI)[C@H]1CC[C@H]2[C@@H](O[Si](C)(C)C(C)(C)C)CCC[C@]12C | 40 to 41 °C
33 | COc1cc(NC(=O)N(O)C(C)C)cc(OC)c1OC | 140 to 141 °C
34 | CC(C)n1cncc1CO | 83 to 84 °C
35 | COc1cc(N)c(N)cc1C(N)=O | 181 to 183 °C
36 | Cn1cc(-c2cc3nccnc3[nH]2)c2cc(O)ccc21 | 289 to 290 °C
37 | Nc1ccc2cnn(-c3ccnc(N[C@H]4CC[C@H](O)CC4)n3)c2c1 | 236 to 238 °C
38 | COC(=O)c1ccccc1Nc1c(Cl)ccc(C)c1Cl | 130 to 131 °C
39 | COc1c(C(=O)O)nc(N2CCCCS2(=O)=O)n(C)c1=O | 180 to 181 °C
40 | CCN1C(=O)[C@@H](NC(=O)OC(C)(C)C)COc2ccccc21 | 112 °C
41 | N#Cc1sc2ccc(Br)cc2c1-c1ccccc1 | 145 to 146 °C
42 | CCc1cc(C(=O)c2ccccc2Cl)c(-n2c(CC)nnc2CNC(=O)c2ccc(Cl)c(Cl)c2)s1 | 136 to 138 °C
43 | Cc1cc(Cl)cc(C(=O)NC2(C)CS(=O)(=O)C2)c1NC(=O)c1cc(C(F)(F)F)nn1-c1ncccc1Cl | 168 to 171 °C
44 | COc1ccc(N2c3ccccc3S(=O)(=O)c3ccccc32)cc1 | 265 to 266 °C
45 | C/C(=C\c1ccccc1)CNc1cccc(-c2ccnc3c(C(=O)c4cccs4)cnn23)c1 | 74 to 76 °C
46 | COC(=O)c1ccc(Cl)cc1C(=O)c1ccccc1F | 115 to 116 °C
47 | COc1cc2c(c(Cl)c1Cl)CCCC2 | 67 to 68.5 °C
48 | CCOCc1nc2c(N)nc3c(c2n1CCCNS(C)(=O)=O)CCCC3 | 212 to 214 °C
49 | CN1CCC(=O)C(c2cccc(C(F)(F)F)c2)C1 (stereo not drawn) | 64 to 65 °C
50 | ON=Cc1ccc(-c2ccc(O)cc2)c2ccccc12 | 200 °C

Row | Compound | melting point
51 | CC(=Cc1ccc(C(=O)O)cc1)c1ccc2c(c1)OCCC2(C)C | 242 to 244 °C
52 | CCCc1c(OCCCOc2ccc(CC(=O)O)cc2)ccc(C(C)=O)c1O | 106 to 108 °C
53 | COC(=O)c1sc2nc(C)c(Cl)c(=O)n2c1C | 140 to 141 °C
54 | CC1(C)CCSc2c(CC#Cc3ccc(O)cc3)cccc21 | 95 °C
55 | CS(=O)(=O)c1ccc(-n2cc(-c3cccc(F)c3)nc2-c2ccc(Cl)cc2)cc1 | 194 to 196 °C
56 | CNC(=S)c1c(C(F)(F)F)nc(C(F)F)c(C(=O)OC)c1NC(C)C | 129 to 131 °C
57 | COC(=O)[C@@]1(c2ccc3ccccc3c2)CC1(c1ccccc1)c1ccccc1 | 138 to 139 °C
58 | CCCCCCCCCCCCC/C=C1\C(=O)OCC1(CO)COC(C)=O (stereo not drawn) | 48 °C
59 | Cc1ccc(Cl)nc1N1CCCNC1=C[N+](=O)[O-] | 176 to 183 °C
60 | CS(=O)(=O)Nc1ccc(/C=C\COCCCCCCO)cc1 | 65 to 67 °C
61 | CNC(=O)C(=NOC)c1ccccc1C#Cc1ccccc1C | 128 to 129 °C
62 | COC(=O)/C=C/c1cc(-c2ccc(S(C)(=O)=O)cc2)n(CC2CCCCC2)n1 | 48 to 50 °C
63 | CC(=O)NCC1CN(c2ccc(N3CCN(c4nc(=O)n(-c5ccccc5)s4)CC3)c(F)c2)C(=O)O1 (stereo not drawn) | 245 to 247 °C
64 | Cc1ccc(S(=O)(=O)n2ccc3c(C(=O)c4ccccc4O)cccc32)cc1 | 110 °C
65 | CCC(=O)C1=C(O)CC(c2cccc(Oc3ccc(S(C)(=O)=O)cc3)c2)CC1=O (stereo not drawn) | 136 to 138 °C
66 | COc1ccc(CCC(=O)Nc2c(C)c(C)c3c(c2C)C(c2ccc(C(C)C)cc2)CO3)cc1 (stereo not drawn) | 119 to 120 °C
67 | CC1=C(CCOC(=O)C(C)(C)C)C2=C(O)N(I)CN(CCOC(=O)C(C)(C)C)C2=N1 | 155 °C
68 | CCN(CC)c1ccc(C=O)c(OCCN2CCOCC2)c1 | 107 to 109 °C
69 | O=C(O)CCCC#CCN1C(=O)c2ccccc2C1=O | 120 to 122 °C
70 | CCOC(=O)CCCn1nnnc1-c1ccc2c(c1)[C@@H](Nc1ccnc(SC)n1)[C@](C)(O)C(C)(C)O2 | 115 to 130 °C
71 | CCOC(=O)Cn1ncc(-c2ccc(F)cc2)c1-c1ccccc1 | 86 to 87 °C
72 | O=C(NCCCC[C@H](NC(=O)OCc1ccccc1)C(=O)Nc1ccc(-c2ccc(C(=O)O)c(=O)[nH]2)cc1)OCc1ccccc1 | 199 to 200 °C
73 | CNC(=O)Cn1c(-c2ccccn2)nc2cccnc21 | 228 to 230 °C
74 | Cc1cc([N+](=O)[O-])ccc1NC1CC1 | 35 to 37 °C
75 | COC(=O)c1ccccc1Cc1cc2cc(Cl)ccc2n1S(=O)(=O)c1ccc2c(c1)C(C)(C)CO2 | 160 °C

Row | Compound | melting point
76 | C=CCOC(=O)c1ncn2c1[C@@H]1CCCN1C(=O)c1c(Cl)cccc1-2 | 122 to 123 °C
77 | Cc1cc(F)ccc1[C@@H]1CN(C2=CC(=O)CC2)CC[C@H]1C(=O)N(C)Cc1cc(C(F)(F)F)cc(C(F)(F)F)c1 (relative stereo) | 192 to 193 °C
78 | Cc1ccc(-c2noc(C(F)F)c2-c2ccc(S(N)(=O)=O)cc2)cc1 | 169 to 172 °C
79 | O=C(N[C@@H](Cc1ccc2ccccc2c1)[C@H]1CO1)OCc1ccccc1 | 115 to 116 °C
80 | O=C(O)C(=Cc1cccnc1)c1ccc(Cl)cc1Cl | 208 to 211 °C
81 | CCOC(=O)c1c(C)cc2nc(COC(N)=O)n(-c3ccccc3C(F)(F)F)c(=O)c2c1C | 158 to 159 °C
82 | COc1ccc(-c2c(C)c3cccc4c3n2CC(CCN2CCN(c3cc(C)ccn3)CC2)O4)cc1 (stereo not drawn) | 165 °C
83 | CCNC(=O)n1nc(Oc2c(Cl)cc(C(F)(F)F)cc2[N+](=O)[O-])cc1C | 98 to 99 °C
84 | CC(C)C[C@@H](C(=O)O)N1C(=O)[C@@H](N2C(=O)OC[C@@H]2c2ccccc2)[C@H]1CCc1ccccc1 | 138 to 140 °C
85 | CCCC=Cc1c(C(C)C)nc(C(C)C)c(CO)c1-c1cccc(C)c1 | 94 to 97 °C
86 | CN1C(C)(C)CC(NC(=O)c2ccc(-c3nc4cc(Cl)c(Cl)cc4[nH]3)cc2)CC1(C)C | > 280 °C
87 | O=C1Nc2cc(Cl)ccc2C(=O)C1c1ccccn1 (stereo not drawn) | > 330 °C
88 | O=C(O)CCc1cn(Cc2ccc3cc(OCc4ccccc4F)ccc3c2)nc1-c1ccccc1 | 152 to 153 °C
89 | Cc1nc(-n2ccc(OCc3ccccc3)cc2=O)sc1C(=O)NCc1cccnc1 | 208 to 209 °C
90 | CC=CC(=O)C1=C(C)C(=O)CCC1(C)C | 68 to 69 °C
91 | CC1(C)C(C(=O)NC(=O)CN)C1(C)C | 176 °C
92 | CC(=O)OC1CC2C1N(C(C)=O)C(=O)N2C(C)=O (stereo not drawn) | 148 to 150 °C
93 | CCc1c(C)nc2c(C)cccn2c1=O | 90 to 92 °C
94 | CCCCCc1ccc(C(=O)Nc2ccc(-n3nc(C(F)(F)F)cc3C(F)(F)F)cc2)c(=O)o1 | 140 to 141 °C
95 | CCOC(=O)c1cc(NCc2ccccc2)c(Nc2ccc(C)cc2)c(S(N)(=O)=O)c1 | 159 to 160 °C
96 | O=C(Nc1ccccc1C(=O)NCCc1ncc[nH]1)c1ccc(C(F)(F)F)cc1 | 207 to 215 °C
97 | O=C(Nc1ccccc1C(c1ccc(O)cc1)c1ccc(O)cc1)C12CC3CC(CC1C3)C2 | 155 to 157 °C
98 | Cc1cccc(C(=O)Nc2c[nH]nc2C(=O)NCCCOC(C)C)n1 | 169 to 170 °C
